Test results: patent US6469030B2, “Methods for the treatment and prevention of ileus” (Adolor Corporation, priority 1999, dated 2002)

Columns and labels:
[1] = test system: patients undergoing partial colectomy or simple or radical hysterectomy surgical procedures; assay: Phase II clinical study versus placebo in patients after abdominal surgery (post-surgical ileus); assay type: in vivo, humans
Experimental: A 78 patient Phase II clinical study was conducted which compared two doses (2 mg and 12 mg) of the compound of formula (II) versus placebo in patients undergoing partial colectomy or simple or radical hysterectomy surgical procedures. The results of this study are set forth in the following Tables 1 to 4 and are depicted graphically in FIGS. 1 to 5.
The time to first flatus was reduced by 15 hours; all other measures were reduced by 24 hours or more. […] In particular, none of the patients receiving the higher dose of the compound of formula (II) experienced post-surgical vomiting compared to 23% in the placebo control group (P<0.03). Twenty seven percent of the patients receiving the higher dose of compound (II) experienced clinically relevant post- surgical nausea compared to 63% of the placebo control group (P=0.003).

mu opioid receptors = mu opioid receptors (Homo sapiens, UniProt P35372); conditions: opioid receptor binding assays; cited from earlier work
mu opioid receptors, sequence (P35372 whole entry): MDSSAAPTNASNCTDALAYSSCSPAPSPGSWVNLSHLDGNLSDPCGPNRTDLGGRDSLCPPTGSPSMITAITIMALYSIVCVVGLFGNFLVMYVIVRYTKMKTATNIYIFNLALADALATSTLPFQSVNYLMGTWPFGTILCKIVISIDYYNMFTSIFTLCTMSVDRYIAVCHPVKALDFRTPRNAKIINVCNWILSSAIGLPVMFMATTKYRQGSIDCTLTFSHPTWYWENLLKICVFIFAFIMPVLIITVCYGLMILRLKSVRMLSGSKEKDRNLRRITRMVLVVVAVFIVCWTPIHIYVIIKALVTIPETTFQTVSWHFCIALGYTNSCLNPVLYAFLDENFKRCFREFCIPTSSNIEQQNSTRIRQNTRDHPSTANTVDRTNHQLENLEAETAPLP

Solubility in water = assay type: physicochemical; conditions: except at low or high pH conditions
Source text: Zwitterionic character may be inherent to the compound, and may impart desirable properties such as poor systemic absorption and sustained local affect on the gut following oral administration.

In the case of `C[C@H]1CN(C[C@H](Cc2ccccc2)C(=O)NCC(=O)O)CCC1(C)c1cccc(O)c1` (single isomer, unassigned; (+)) [compound of formula (II), (+)-Z—NHCH2C(O)OH], the “overall adverse effects compared with placebo-treated group” value ([1]; higher dose) is reported as “fewer overall adverse effects”, the “reduction of all other measures (first bowel movement, solid diet, ready for discharge, discharge)” value ([1]; higher dose versus placebo) is reported as no less than 24 h and the “reduction of time to first flatus” value ([1]; higher dose versus placebo) is reported as 15 h. For the same molecule, the “patients experiencing post-surgical vomiting” value ([1]; higher dose, 23% in the placebo control group (P<0.03)) was “none”, the “patients experiencing clinically relevant post-surgical nausea” value ([1]; higher dose, 63% of the placebo control group (P=0.003)) was “Twenty seven” and the “serious adverse side effects judged related to the compound” value ([1]; patients of the trial) was “No patients experienced serious adverse side effects”. For the same molecule, the “effect on beneficial analgesic effects of systemic narcotics” value ([1]; patients receiving systemic narcotics for post-surgical pain) was “did not reduce the beneficial analgesic effects”, the “opioid receptor binding preference” value (mu opioid receptors) was “preferential binding to mu opioid receptors” and the solubility in water (Solubility in water) was “low solubility in water”.
